# Laboratory results published in patent publication EP4755888A1 (ILAb Co., Ltd., priority 2023, dated 2025).
# Target: PD-1/PD-L1 (Homo sapiens, UniProt Q9NZQ7)
# Experiment: TR-FRET PD-1/PD-L1 binding inhibition at the molecular level (free proteins)
# Conditions: Tag1-PD-L1 and Tag2-PD-1 proteins, twelve concentrations from 200 nM, 2 hours at room temperature, read-out: FRET assay (IC50)
# Method in brief: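 HTRF read-out at 665/620 nm after 2 h at room temperature. Detection used anti-Tag1 Eu cryptate plus anti-Tag2 XL665 antibodies. Tagged PD-L1 and PD-1 proteins were pre-mixed with compound across twelve […] 1:2 dilutions starting at 200 nM.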
# PD-1/PD-L1, sequence (Q9NZQ7 19-238 limits assumed): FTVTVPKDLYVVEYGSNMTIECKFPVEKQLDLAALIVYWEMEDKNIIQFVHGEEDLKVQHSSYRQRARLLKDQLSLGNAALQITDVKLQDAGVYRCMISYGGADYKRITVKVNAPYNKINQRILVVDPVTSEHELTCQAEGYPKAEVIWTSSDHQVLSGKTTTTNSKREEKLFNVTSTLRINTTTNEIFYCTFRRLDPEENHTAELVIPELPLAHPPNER
row,SMILES,IC50
1,"Cc1c(NC(=O)c2cc3n(n2)CCC[C@@H]3N2CCC(O)CC2)cccc1-c1cccc(Nc2nc(C(F)F)nc3cccnc23)c1C [Compound 287, (S)-N-(3'-((2-(difluoromethyl)pyrido[3,2-d]pyrimidin-4-yl)amino)-2,2'-dimethyl-[1,1'-biphenyl]-3-yl)-4-(4-hydroxypiperidin-1-yl)-4,5,6,7-tetrahydropyrazolo[1,5-a]pyridine-2-carboxamide]",10 to 100 nM
2,"Cc1c(NC(=O)c2cc3n(n2)CCCC3N2CC[C@@H](O)C2)cccc1-c1cccc(-c2cc3n(n2)CCCC3N2CC[C@@H](O)C2)c1C (stereo partly drawn) [Compound 161, 4-((R)-3-hydroxypyrrolidin-1-yl)-N-(3'-(4-((R)-3-hydroxypyrrolidin-1-yl)-4,5,6,7-tetrahydropyrazolo[1,5-a]pyridin-2-yl)-2,2'-dimethyl-[1,1'-biphenyl]-3-yl)-4,5,6,7-tetrahydropyrazolo[1,5-a]pyridine-2-carboxamide]",10 to 100 nM
3,"Cc1nc(Nc2cccc(-c3cccc(NC(=O)c4cc5n(n4)CCC[C@@H]5NC(C)(C)C(=O)O)c3Cl)c2Cl)c2ncccc2n1 [Compound 279, (S)-2-((2-((2,2'-dichloro-3'-((2-methylpyrido[3,2-d]pyrimidin-4-yl)amino)-[1,1'-biphenyl]-3-yl)carbamoyl)-4,5,6,7-tetrahydropyrazolo[1,5-a]pyridin-4-yl)amino)-2-methylpropanoic acid]",10 to 100 nM
4,"O=C(Nc1cccc(-c2cccc(Nc3nc(C(F)F)nc4cc(CN5CC[C@@H](O)C5)cnc34)c2Cl)c1Cl)c1cc2n(n1)CCC[C@@H]2N1CC(C(=O)O)C1 (stereo in doubt) [Compound 262, 1-((S)-2-((2,2'-dichloro-3'-((2-(difluoromethyl)-7-(((R)-3-hydroxypyrrolidin-1-yl)methyl)pyrido[3,2-d]pyrimidin-4-yl)amino)-[1,1'-biphenyl]-3-yl)carbamoyl)-4,5,6,7-tetrahydropyrazolo[1,5-a]pyridin-4-yl)azetidine-3-carboxylic acid]",10 to 100 nM
5,"CN[C@@H]1CCCn2nc(C(=O)Nc3cccc(-c4cccc(Nc5nc(C(F)(F)F)nc6cccnc56)c4Cl)c3Cl)cc21 [Compound 357, (R)-N-(2,2'-dichloro-3'-((2-(trifluoromethyl)pyrido[3,2-d]pyrimidin-4-yl)amino)-[1,1'-biphenyl]-3-yl)-4-(methylamino)-4,5,6,7-tetrahydropyrazolo[1,5-a]pyridine-2-carboxamide]",10 to 100 nM
6,"Cc1c(NC(=O)c2ccc(CN3CC[C@@H](O)C3)cn2)cccc1-c1cccc(NC(=O)c2cc3n(n2)CCCC3NCCO)c1C (stereo partly drawn) [Compound 91, 4-((2-hydroxyethyl)amino)-N-(3'-(5-(((R)-3-hydroxypyrrolidin-1-yl)methyl)picolinamido)-2,2'-dimethyl-[1,1'-biphenyl]-3-yl)-4,5,6,7-tetrahydropyrazolo[1,5-a]pyridine-2-carboxamide]",< 10 nM
7,"O=C(Nc1cccc(-c2cccc(Nc3nccc4nccnc34)c2Cl)c1Cl)c1cc2n(n1)CCC[C@H]2N1CCC(C(=O)O)CC1 [Compound 256, (R)-1-(2-((2,2'-dichloro-3'-(pyrido[3,4-b]pyrazin-5-ylamino)-[1,1'-biphenyl]-3-yl)carbamoyl)-4,5,6,7-tetrahydropyrazolo[1,5-a]pyridin-4-yl)piperidine-4-carboxylic acid]",10 to 100 nM
8,"O=C1CC[C@@H](CNC2CCCn3nc(-c4cccc(-c5cccc(Nc6nccc7cc(CN8CC[C@@H](O)C8)cnc67)c5Cl)c4Cl)cc32)N1 (stereo partly drawn) [Compound 182, (5S)-5-(((2-(2,2'-dichloro-3'-((3-(((R)-3-hydroxypyrrolidin-1-yl)methyl)-1,7-naphthyridin-8-yl)amino)-[1,1'-biphenyl]-3-yl)-4,5,6,7-tetrahydropyrazolo[1,5-a]pyridin-4-yl)amino)methyl)pyrrolidin-2-one]",10 to 100 nM
9,"O=C(Nc1cccc(-c2cccc(Nc3nccc4cc(CN5CC(F)C5)cnc34)c2Cl)c1Cl)c1cc2n(n1)CCC[C@H]2N1CCC(C(=O)O)CC1 [Compound 284, (R)-1-(2-((2,2'-dichloro-3'-((3-((3-fluoroazetidin-1-yl)methyl)-1,7-naphthyridin-8-yl)amino)-[1,1'-biphenyl]-3-yl)carbamoyl)-4,5,6,7-tetrahydropyrazolo[1,5-a]pyridin-4-yl)piperidine-4-carboxylic acid]",10 to 100 nM
10,"O=C(Nc1cccc(-c2cccc(Nc3nc(C(F)F)nc4cc(CN5CC[C@@H](O)C5)cnc34)c2Cl)c1Cl)c1cc2n(n1)CCCC2N1CCC(O)CC1 (stereo partly drawn) [Compound 144, N-(2,2'-dichloro-3'-((2-(difluoromethyl)-7-(((R)-3-hydroxypyrrolidin-1-yl)methyl)pyrido[3,2-d]pyrimidin-4-yl)amino)-[1,1'-biphenyl]-3-yl)-4-(4-hydroxypiperidin-1-yl)-4,5,6,7-tetrahydropyrazolo[1,5-a]pyridine-2-carboxamide]",10 to 100 nM

# Further lines, results first:
row,IC50,SMILES
1,10 to 100 nM,"CC(C)c1nc(Nc2cccc(-c3cccc(NC(=O)c4cc5n(n4)CCC[C@@H]5NC(C)(C)C(=O)O)c3Cl)c2Cl)c2ncccc2n1 (stereo in doubt) [Compound 300, (S)-2-((2-((2,2'-dichloro-3'-((2-isopropyl-pyrido[3,2-d]pyrimidin-4-yl)amino)-[1,1'-biphenyl]-3-yl)carbamoyl)-4,5,6,7-tetrahydropyrazolo[1,5-a]pyridin-4-yl)amino)-2-methylpropanoic acid]"
2,10 to 100 nM,"O=C1CC[C@@H](CNC2CCCn3nc(C(=O)Nc4cccc(-c5cccc(Nc6nccc7cc(CN8CC[C@@H](O)C8)cnc67)c5Cl)c4Cl)cc32)N1 (stereo partly drawn) [Compound 21, N-(2,2'-dichloro-3'-((3-(((R)-3-hydroxypyrrolidin-1-yl)methyl)-1,7-naphthyridin-8-yl)amino)-[1,1'-biphenyl]-3-yl)-4-((((S)-5-oxopyrrolidin-2-yl)methyl)amino)-4,5,6,7-tetrahydropyrazolo[1,5-a]pyridine-2-carboxamide]"
3,< 10 nM,"CN[C@@H]1CCCn2nc(C(=O)Nc3cccc(-c4cccc(Nc5nccc6cc(CN7CC[C@@H](O)C7)cnc56)c4C)c3C)cc21 [Compound 347, (R)-N-(3'-((3-(((R)-3-hydroxypyrrolidin-1-yl)methyl)-1,7-naphthyridin-8-yl)amino)-2,2'-dimethyl-[1,1'-biphenyl]-3-yl)-4-(methylamino)-4,5,6,7-tetrahydropyrazolo[1,5-a]pyridine-2-carboxamide]"
4,10 to 100 nM,"Cc1c(NC(=O)c2cc3n(n2)CCCC3N2CC[C@@H](O)C2)cccc1-c1cccc(-c2cc3n(n2)CCCC3NCCO)c1C (stereo partly drawn) [Compound 160, N-(3'-(4-((2-hydroxyethyl)amino)-4,5,6,7-tetrahydropyrazolo[1,5-a]pyridin-2-yl)-2,2'-dimethyl-[1,1'-biphenyl]-3-yl)-4-((R)-3-hydroxypyrrolidin-1-yl)-4,5,6,7-tetrahydropyrazolo[1,5-a]pyridine-2-carboxamide]"
5,< 10 nM,"COc1cc(-c2cccc(-c3cccc(NC(=O)c4cc5n(n4)CCCC5NCC(=O)O)c3Cl)c2Cl)cc(F)c1CNC[C@@H]1CCC(=O)N1 (stereo partly drawn) [Compound 188, 2-((2-((2,2'-dichloro-3""-fluoro-5""-methoxy-4""-(((((S)-5-oxopyrrolidin-2-yl)methyl)amino)methyl)-[1,1':3',1""-terphenyl]-3-yl)carbamoyl)-4,5,6,7-tetrahydropyrazolo[1,5-a]pyridin-4-yl)amino)acetic acid]"
